According to patent US5137811A, “Method for diagnosing periodontal diseases with a substrate specific for aminopeptidase activity of periodontopathic bacteria” (Sunstar Kabushiki Kaisha, priority 1986, dated 1992):
Where a SMILES comes first, the peptide text is derived from it. The star is where a group is joined. βNA = c1ccc2cc(N*)ccc2c1; Bz = O=C(c1ccccc1)*

Tests used:
[1] = system: periodontopathic bacteria specific aminopeptidase activity; assay: Hydrolytic activity of saliva supernatant (Experiment 8); assay type: biochemical; details: 37° C. for 4 hours, Table 8
Method: A saliva mixture was collected from a group consisting of ten healthy subjects and centrifuged to obtain a supernatant. Likewise, centrifuged supernatants were obtained from a group of ten subjects with adult periodontitis and a group of four localized juvenile periodontitis. The supernatant was used as a specimen and its hydrolytic activity was determined according to the same manner as described in Experiment 4 except that the reaction was carried out at 37° C. for 4 hours. As the substrates, there were used N-carbobenzoxy-valyl-glycyl-arginine-p-nitrophenol (CxVGR-pNP), N-carbobenzoxy-valyl-glycylarginine-4-methoxy-2-naphthylamide (CxVGR-4NA) and N-carbobenzoxy-valyl-glycyl-arginine-β-naphthylamide (CxVGR-βNA). Color was developed by using lN sodium hydroxide for CxVGR-pNP and Fast Blue BB for CxVGR-4NA and CxVGR-βNA.
According to the same manner as described in Experiment 7, hydrolytic activity was tested by using lysylproline-p-nitroanilide (KP-pNA), lysyl-proline-4-methoxy-2-naphthylamide (KP-4NA) and lysyl-proline-β-naphthylamide (KP-βNA)as the substrates. Color was developed by using lN sodium hydroxide for KP-pNA and Fast Blue BB for KP-4-NA and KP-βNA.

B. gingivalis [2] = assay: Hydrolytic activity of cell suspension on aminopeptidase substrates (Experiment 2); assay type: cell-based; details: five strains, Table 2
Method: (§1) The strains of Treponema were anaerobically cultivated using TYGVS media at 37° C. for 7 days, while other bacterial strains were cultivated using brain heart infusion broth at 37° C. for 48 to 72 hours. Each culture was diluted to obtain a bacterial cell suspension, the absorption at 660 nm of which was 1.0.
(§2) Substrate compounds for aminopeptidase enzyme having various color developing groups derived from β-naphthylamine were dissolved in 0.1M Tris-HCl buffer (pH 7.0) at the concentration of 0.2 mM to obtain substrate solutions.
(§3) To the substrate solution (1.5 ml) was added the above cell suspension (0.3 ml) and reacted at 37° C. for 60 minutes. After completion of the reaction, a coloring reagent [prepared by dissolving diazonium salt of Garnet GBC in 1M acetate buffer (containing 10% Tween 20, pH: 4.2) at the concentration of 0.5 mg/ml] was added and, after 15 minutes, the absorption at 525 nm was determined with a spectrophotometer.
(§4) On the basis of the average amount of released β-naphthylamine in each strain, the hydrolytic activity was expressed as follows: […]
(§5) According to the same manner as described in Experiment 1, periodontopathic bacteria specific aminopeptidase activity was tested by using four strains of Treponema denticola, five strains of B. gingivalis, three strains of B. intermedius, two strains of B. melaninogenicus, two strains of Actinomyces israelli, four strains of Actinobacillus actinomycetemcomitans and three strains of Fusobacterium nucleatum. Abbreviations used in Table 2 mean the following substrate compounds.

B. intermedius = assay: as above; assay type: cell-based; details: three strains, Table 2
Method: as §1, §2, §3, §4, §5

Actinomyces israelli [3] = assay: as above; assay type: cell-based; details: two strains, Table 2
Method: as §1, §2, §3, §4, §5

B. denticola = assay: as above; assay type: cell-based; details: Table 2
Method: as §1, §2, §3, §4, §5

Treponema denticola [4] = assay: as above; assay type: cell-based; details: four strains, Table 2
Method: as §1, §2, §3, §4, §5

B. corporis = assay: as above; assay type: cell-based; details: Table 2
Method: as §1, §2, §3, §4, §5

[5] = system: Actinobacillus actinomycetemcomitans; assay: as above; assay type: cell-based; details: four strains, Table 2
Method: as §1, §2, §3, §4, §5

Fusobacterium nucleatum [6] = assay: as above; assay type: cell-based; details: three strains, Table 2
Method: as §1, §2, §3, §4, §5

B. melaninogenicus = assay: as above; assay type: cell-based; details: two strains, Table 2
Method: as §1, §2, §3, §4, §5

[7] = system: periodontopathic bacteria specific aminopeptidase activity; assay: Hydrolytic activity of gingival crevicular fluid specimens, visually evaluated (Experiment 5); assay type: biochemical; set-up: key: -: orange; +: dark orange; ++: brown; +++: dark brown
Method: as §2, §3
(§6) Specimens of gingival crevicular fluid were collected with paper points from five subjects who were considered to be healthy from their clinical state, six subjects with gingivitis and six subjects with periodontitis. Each specimen was dispersed in Ringer's solution (1.5 ml), and the relative amount of spirochete to total bacteria: [formula] was determined with a phase contrast microscope. Further, the Ringer's solution (0.3 ml) was tested for hydrolytic activity using the substrate solution prepared in the same manner as described in Experiment 1. As substrates, there were used compounds of the formula [1], i.e., N-benzoylvalyl-glycyl-arginine-β-naphthylamide (BzVGR) and N-carbobenzoxy-valyl-glycyl-arginine-β-naphthylamide (CxVGR) were used.
In table 4, hydrolytic activity was visually evaluated and expressed as follows: […]
According to the same manner as described in Experiment 4, hydrolytic activity was tested by using the compounds of the formula [2], i.e., lysyl-proline-β-naphthylamide (KP) and N-carbobenzoxy-prolyl-alanyl-glycylproline-β-naphthylamide (CxPAGP) as the substrates.

Treponema denticola [8] = assay: Hydrolytic activity of oral anaerobe cell suspension on aminopeptidase substrates (Experiment 1); assay type: cell-based; details: four strains, substrate 0.2 mM, pH 7.0, 37° C., 60 minutes, Table 1
Method: (§7) Oral anaerobes, i.e., four strains of Treponema denticola, five strains of B. gingivalis, four strains of Actinobacillus actinomycetemcomitans, four strains of Capnocytophaga sp. and three strains of Fusobacterium nucleatum were tested for hydrolytic activity to the substrate of aminopeptidase enzyme as follows.
as §1, §2, §3, §4

Bacteroides gingivalis = assay: as above; assay type: cell-based; details: five strains, substrate 0.2 mM, pH 7.0, 37° C., 60 minutes, Table 1
Method: as §7, §1, §2, §3, §4

[9] = system: Actinobacillus actinomycetemcomitans; assay: as above; assay type: cell-based; details: four strains, substrate 0.2 mM, pH 7.0, 37° C., 60 minutes, Table 1
Method: as §7, §1, §2, §3, §4

Fusobacterium nucleatum [10] = assay: as above; assay type: cell-based; details: three strains, substrate 0.2 mM, pH 7.0, 37° C., 60 minutes, Table 1
Method: as §7, §1, §2, §3, §4

Capnocytophaga sp. = assay: as above; assay type: cell-based; details: four strains, substrate 0.2 mM, pH 7.0, 37° C., 60 minutes, Table 1
Method: as §7, §1, §2, §3, §4

B. gingivalis [11] = assay: Hydrolytic activity of cell suspension, substrates alone or in combination (Experiment 3); assay type: cell-based; details: five strains, Table 3
Method: as §1, §2, §3, §4
(§8) According to the same manner as described in Experiment 1, periodontopathic bacteria specific aminopeptidase activity was tested by using four strains of Treponema denticola, five strains of B. gingivalis, four strains of Actinobacillus actinomycetemcomitans, two strains of Actinomyces israelli and three strains of Fusobacterium nucleatum. Abbreviations in Table 3 are the same as those in Tables 1 and 2. Hydrolytic activity "+++" means "40≤release amount<80 nmol/ml" and "++++" means "release amount≥80 nmol/ml".

Actinomyces israelli [12] = assay: as above; assay type: cell-based; details: two strains, Table 3
Method: as §1, §2, §3, §4, §8

Treponema denticola [13] = assay: as above; assay type: cell-based; details: four strains, Table 3
Method: as §1, §2, §3, §4, §8

[14] = system: Actinobacillus actinomycetemcomitans; assay: as above; assay type: cell-based; details: four strains, Table 3
Method: as §1, §2, §3, §4, §8

Fusobacterium nucleatum [15] = assay: as above; assay type: cell-based; details: three strains, Table 3
Method: as §1, §2, §3, §4, §8

[16] = system: periodontopathic bacteria specific aminopeptidase activity; assay: Hydrolytic activity of gingival crevicular fluid specimens, OD525 (Experiment 6); assay type: biochemical
Method: as §2, §3, §6
According to the same manner as described in Experiment 4, hydrolytic activity was tested by using the compounds of the formulas and [2], i.e., glycyl-proline-βnaphthylamide (GP), N-benzoyl-arginyl-glycyl-phenylalanylproline-β-naphthylamide (BzRGFP), N-carbobenzoxy-valylglycyl-arginine-β-naphthylamide (CxVGR) and N-benzoylglycyl-arginine-β-naphthylamide (BzGR) alone or in combination. Hydrolytic activity was determined by measuring absorption at 525 nm (OD525) and expressed as follows.

[17] = Gingivitis subject 1 (spirochete 7.3 %)
[18] = Gingivitis subject 2 (spirochete 16.7 %)
[19] = Gingivitis subject 3 (spirochete 20.5 %)
[20] = Gingivitis subject 4 (spirochete 6.8 %)
[21] = Gingivitis subject 5 (spirochete 7.3 %)
[22] = Healthy subject 1 (spirochete 0.1 %)
[23] = Healthy subject 3 (spirochete 1.1 %)
[24] = Healthy subject 4 (spirochete 0.6 %)
[25] = Healthy subject 5 (spirochete 1.3 %)
[26] = Periodontitis subject 1 (spirochete 45.2 %)
[27] = Periodontitis subject 2 (spirochete 30.3 %)
[28] = Periodontitis subject 3 (spirochete 34.6 %)
[29] = Periodontitis subject 4 (spirochete 21.2 %)
[30] = Periodontitis subject 5 (spirochete 40.3 %)
[31] = Periodontitis subject 6 (spirochete 35.1 %)

NCCCC[C@H](N)C(=O)N1CCC[C@H]1C(=O)Nc1ccc2ccccc2c1 [KP, lysyl-proline-β-naphthylamide] (H-Lys-Pro-βNA)
+++: hydrolytic activity, visually evaluated [7, 26] | hydrolytic activity, visually evaluated [7, 27] | hydrolytic activity, visually evaluated [7, 28] | hydrolytic activity, visually evaluated [7, 29] | hydrolytic activity, visually evaluated [7, 30] | hydrolytic activity, visually evaluated [7, 31]
16.1 ± 10.3 nmol/mL: hydrolytic activity ([1]; Healthy subjects)
36.2 ± 9.9 nmol/mL: hydrolytic activity ([1]; Adult Periodontitis subjects)
+: hydrolytic activity, visually evaluated [7, 17] | hydrolytic activity, visually evaluated [7, 18] | hydrolytic activity, visually evaluated ([7]; Gingivitis subject 6 (spirochete 14.4 %)) | hydrolytic activity, visually evaluated ([7]; Healthy subject 2 (spirochete 2.5 %))
++ (20 ≤release amount<40 nmol/ml): hydrolytic activity (average amount of released β-naphthylamine) (B. intermedius) | hydrolytic activity (average amount of released β-naphthylamine) (B. denticola) | hydrolytic activity (average amount of released β-naphthylamine) (Treponema denticola [4]) | hydrolytic activity (average amount of released β-naphthylamine) (B. corporis) | hydrolytic activity (average amount of released β-naphthylamine) (B. melaninogenicus)
- (release amount<5 nmol/ml): hydrolytic activity (average amount of released β-naphthylamine) (Actinomyces israelli [3]) | hydrolytic activity (average amount of released β-naphthylamine) [5] | hydrolytic activity (average amount of released β-naphthylamine) (Fusobacterium nucleatum [6])
-: hydrolytic activity, visually evaluated [7, 20] | hydrolytic activity, visually evaluated [7, 21] | hydrolytic activity, visually evaluated [7, 22] | hydrolytic activity, visually evaluated [7, 23] | hydrolytic activity, visually evaluated [7, 24] | hydrolytic activity, visually evaluated [7, 25]
33.4 ± 10.0 nmol/mL: hydrolytic activity ([1]; Localized juvenile periodontitis subjects)
++: hydrolytic activity, visually evaluated [7, 19]
+++ (release amount≥40 nmol/ml): hydrolytic activity (average amount of released β-naphthylamine) (B. gingivalis [2])

N=C(N)NCCC[C@H](NC(=O)CN)C(=O)Nc1ccc2ccccc2c1 [GR, glycyl-arginine-β-naphthylamide] (H-Gly-Arg-βNA)
- (release amount<5 nmol/ml): hydrolytic activity (average amount of released β-naphthylamine) [9] | hydrolytic activity (average amount of released β-naphthylamine) (Fusobacterium nucleatum [10]) | hydrolytic activity (release amount) (Actinomyces israelli [12]) | hydrolytic activity (release amount) [14] | hydrolytic activity (release amount) (Fusobacterium nucleatum [15])
++ (20 ≤release amount<40 nmol/ml): hydrolytic activity (average amount of released β-naphthylamine) (Bacteroides gingivalis) | hydrolytic activity (release amount) (B. gingivalis [11])
± (5 ≤release amount<10 nmol/ml): hydrolytic activity (average amount of released β-naphthylamine) (Capnocytophaga sp.)
+ (10 ≤release amount<20 nmol/ml): hydrolytic activity (average amount of released β-naphthylamine) (Treponema denticola [8]) | hydrolytic activity (release amount) (Treponema denticola [13])

N=C(N)NCCC[C@H](NC(=O)CNC(=O)c1ccccc1)C(=O)Nc1ccc2ccccc2c1 [BzGR, N-benzoyl-glycyl-arginine-β-naphthylamide] (Bz-Gly-Arg-βNA)
+++ (40≤release amount<80 nmol/ml): hydrolytic activity (release amount) (B. gingivalis [11])
+ (0.1≤OD525 <0.2): hydrolytic activity, absorption at 525 nm (OD525) [16, 17] | hydrolytic activity, absorption at 525 nm (OD525) [16, 18]
++ (20 ≤release amount<40 nmol/ml): hydrolytic activity (average amount of released β-naphthylamine) (Treponema denticola [8]) | hydrolytic activity (release amount) (Treponema denticola [13])
- (release amount<5 nmol/ml): hydrolytic activity (average amount of released β-naphthylamine) [9] | hydrolytic activity (average amount of released β-naphthylamine) (Fusobacterium nucleatum [10]) | hydrolytic activity (average amount of released β-naphthylamine) (Capnocytophaga sp.) | hydrolytic activity (release amount) (Actinomyces israelli [12]) | hydrolytic activity (release amount) [14] | hydrolytic activity (release amount) (Fusobacterium nucleatum [15])
+++ (release amount≥40 nmol/ml): hydrolytic activity (average amount of released β-naphthylamine) (Bacteroides gingivalis)
- (OD525 <0.1): hydrolytic activity, absorption at 525 nm (OD525) [16, 20] | hydrolytic activity, absorption at 525 nm (OD525) [16, 21] | hydrolytic activity, absorption at 525 nm (OD525) [16, 22] | hydrolytic activity, absorption at 525 nm (OD525) [16, 23] | hydrolytic activity, absorption at 525 nm (OD525) [16, 24] | hydrolytic activity, absorption at 525 nm (OD525) [16, 25]
++ (0.2≤OD525 <0.4): hydrolytic activity, absorption at 525 nm (OD525) [16, 19] | hydrolytic activity, absorption at 525 nm (OD525) [16, 26] | hydrolytic activity, absorption at 525 nm (OD525) [16, 27] | hydrolytic activity, absorption at 525 nm (OD525) [16, 28] | hydrolytic activity, absorption at 525 nm (OD525) [16, 29] | hydrolytic activity, absorption at 525 nm (OD525) [16, 30] | hydrolytic activity, absorption at 525 nm (OD525) [16, 31]
